Values of other authors, collected in article PMC2109944 (The Journal of Cell Biology, 1977).

Columns and labels:
[1] = test system: mouse melanoma cells; conditions: binding at low temperature, no prefixation
[2] = test system: human fibroblasts; conditions: 125I-epidermal growth factor
[3] = test system: dissociated anterior pituitary cells

Substance: a-MSH
- initial distribution of MSH receptor sites [1]: initially distributed at one pole of the cell over the Golgi area

Substance: epidermal growth factor: 125I-labelled epidermal growth factor, literature comparison
- internalization of hormone-bearing receptors [2]: internalized within hours of the binding taking place

Substance: luteinizing hormone-releasing hormone [LHRH]
- time to LH release by exocytosis after stimulation [3]: ≤ 1 min
- desensitization after short-term exposure ([3]; short-term exposure): refractory to further stimulation by the peptide
